{"source": "patent US11974976B2", "about": "“Animal feeds and feed premixes containing betaine hydrochloride and a phytase” (Rural Chemical Industries (AUST) PTY LTD, priority 2013, dated 2024)", "key": {"male Ross 308 chicks [1]": {"test_system": "male Ross 308 chicks", "test": "Bone mineralisation (percentage toe ash)", "assay_type": "in vivo, broiler chicks", "details": "phytase 500 FTU/kg, betaine 2.75 g/kg", "procedure": "The composition and nutrient specifications of the three basal starter (1-16 days post-hatch) and finisher (17-37 days post-hatch) diets are shown in Table 1. An NSP-degrading enzyme (Econase XT) was included across all the wheat-based diets to reflect standard practice and the finisher diets contained 20 g/kg Celite as an acid insoluble ash dietary marker. The starter diets were fed as mash, while the finisher diets were steam-pelleted at a conditioning temperature of 85° C. The NC1 diets were the ‘phytase-modified’ diets with formulated with reductions of 1.4 g/kg Ca and 1.5 g/kg P in the starter diets, which mainly stemmed from the elimination of dicalcium phosphate. The corresponding reductions in the finisher diets were 1.2 g/kg Ca and 1.4/kg P. The NC2 diets were the ‘betaine-modified’ diets in which energy density, methionine and choline levels were reduced mainly by lower inclusion levels of canola oil and synthetic methionine and the elimination of choline chloride relative to the PC diets. The energy densities were reduced from 12.55 to 12.24 MJ/kg in the starter diets and from 12.97 to 12.66 MJ/kg in the finisher diets. Methionine levels were reduced from 4.44 to 3.19 g/kg in the starter diets and from 4.18 to 2.93 g/kg in the finisher diets. Exogenous phytase (Quantum® Blue; AB Vista) was included in the relevant diets at 100 g per tonne or 500 FTU/kg phytase activity and, similarly, betaine HCl (Hi Beta″, 970 g/kg betaine hydrochloride; Rural Chemical Industries) was included in the diets at 2.75 g/kg.\nThe parameters evaluated included growth performance (weight gains, feed intakes, feed conversion ratios; FCR) from 1 to 16, 17 to 37 and 1 to 37 days post-hatch, 1 to 37 days weight gain-corrected FCR, mortality/cull rates, percentage toe ash, nitrogen (N) excretion and nutrient utilisation. Nutrient utilisation included apparent metabolisable energy (AME), expressed as both MJ/kg and MJ/day, N retention and N-corrected AME (AMEn). Also, breast weights in absolute and relative (% yield) terms, abdominal fat pad weights and pH of gizzard contents were determined. However, for reasons of practical expediency, absolute breast weights were determined on a ‘bone-in’ basis from birds that had not been de-feathered and this approach inflates both the absolute weight and yield; nevertheless, the data remains indicative. The experimental data was obtained and calculated via standard procedures followed by the Poultry Research Foundation. While the various procedures are not detailed in this report the majority of them have been described in detail (Selle et al., 2003b) previously.\nThe experimental data was statistically analysed as a 3×2×2 factorial array of dietary treatments. […]"}, "male Ross 308 chicks [2]": {"test_system": "male Ross 308 chicks", "test": "Nutrient utilisation (AME, N retention, N-corrected AME)", "assay_type": "in vivo, broiler chicks", "details": "for Increase in AMEn on addition to diet: diet type x betaine HCl interaction; for AME / AME (energy intake) / AMEn / N retention: phytase 500 FTU/kg, betaine 2.75 g/kg", "from_the_text": "Energy that is not metabolisable is ‘excreted energy’. Another way of defining ‘metabolisable energy’ is to refer to an ‘apparent metabolisable energy value’ or ‘AME value’. An ‘AME value’ is simply the gross energy of the feed consumed minus the gross energy contained in the faeces, urine, and gaseous products of digestion."}, "[3]": {"details": "main effect across diets, hydrochloride"}, "[4]": {"details": "main effect across diets, listed as betaine, hydrochloride"}}, "note": "Structures can show the parent of a compound that is named as a salt. Marks after values point to notes of the source that are not given here.", "data": [{"smiles": "C[N+](C)(C)CC(=O)O", "note": "[Betaine, betaine hydrochloride]", "values": [{"measurement": "Toe ash", "setting": "male Ross 308 chicks [1]; NC1 diets", "result": 11.15, "unit": "%"}, {"measurement": "Toe ash", "setting": "male Ross 308 chicks [1]; NC2 diets", "result": 12.29, "unit": "%"}, {"measurement": "Toe ash", "setting": "male Ross 308 chicks [1]; PC diets", "result": 11.99, "unit": "%"}, {"measurement": "Toe ash", "setting": "male Ross 308 chicks [1]; main effect across diets", "result": 12.07, "unit": "%"}, {"measurement": "AME, diet type x betaine interaction mean", "setting": "male Ross 308 chicks [2]; NC1 diets", "result": 13.10, "unit": "mJ/kg"}, {"measurement": "AMEn, diet type x betaine HCl interaction mean", "setting": "male Ross 308 chicks [2]; NC1 diets", "result": 11.36, "unit": "mJ/kg"}, {"measurement": "Increase in AMEn on addition to diet", "setting": "male Ross 308 chicks [2]; NC1 diets", "result": 1.01, "unit": "mJ"}, {"measurement": "Increase in AME on addition to diet", "setting": "male Ross 308 chicks [2]; NC1 diets, diet type x betaine interaction", "result": 0.78, "unit": "mJ"}, {"measurement": "Increase in AME relative to control diet", "setting": "male Ross 308 chicks [2]; NC1 diets, individual addition", "result": 0.44, "unit": "mJ"}, {"measurement": "AME", "setting": "male Ross 308 chicks [2]; NC1 diets", "result": 12.77, "unit": "MJ/kg DM"}, {"measurement": "AME (energy intake)", "setting": "male Ross 308 chicks [2]; NC1 diets", "result": 1.868, "unit": "mJ/day"}, {"measurement": "AMEn", "setting": "male Ross 308 chicks [2]; NC1 diets", "result": 11.25, "unit": "MJ/kg DM"}, {"measurement": "N retention", "setting": "male Ross 308 chicks [2]; NC1 diets", "result": 52.14, "unit": "%"}, {"measurement": "Increase in AMEn on addition to diet", "setting": "male Ross 308 chicks [2]; NC2 diets", "result": 0.17, "unit": "mJ"}, {"measurement": "Decrease in AME on addition to diet", "setting": "male Ross 308 chicks [2]; NC2 diets, diet type x betaine interaction", "result": 0.08, "unit": "mJ"}, {"measurement": "AME", "setting": "male Ross 308 chicks [2]; NC2 diets", "result": 12.86, "unit": "MJ/kg DM"}, {"measurement": "AME (energy intake)", "setting": "male Ross 308 chicks [2]; NC2 diets", "result": 2.061, "unit": "mJ/day"}, {"measurement": "AMEn", "setting": "male Ross 308 chicks [2]; NC2 diets", "result": 11.43, "unit": "MJ/kg DM"}, {"measurement": "N retention", "setting": "male Ross 308 chicks [2]; NC2 diets", "result": 49.25, "unit": "%"}, {"measurement": "Increase in AMEn on addition to diet", "setting": "male Ross 308 chicks [2]; PC diets", "result": 0.23, "unit": "mJ"}, {"measurement": "Increase in AME on addition to diet", "setting": "male Ross 308 chicks [2]; PC diets, diet type x betaine interaction", "result": 0.20, "unit": "mJ"}, {"measurement": "AME", "setting": "male Ross 308 chicks [2]; PC diets", "result": 13.29, "unit": "MJ/kg DM"}, {"measurement": "AME (energy intake)", "setting": "male Ross 308 chicks [2]; PC diets", "result": 2.077, "unit": "mJ/day"}, {"measurement": "AMEn", "setting": "male Ross 308 chicks [2]; PC diets", "result": 11.69, "unit": "MJ/kg DM"}, {"measurement": "N retention", "setting": "male Ross 308 chicks [2]; PC diets", "result": 52.05, "unit": "%"}, {"measurement": "AME (energy intake), phytase x betaine interaction mean", "setting": "male Ross 308 chicks [2]; across diet types", "result": 2.002, "unit": "mJ/day"}, {"measurement": "AMEn, phytase x betaine HCl interaction mean", "setting": "male Ross 308 chicks [2]; across diet types", "result": 11.46, "unit": "mJ/kg"}, {"measurement": "Increase in AMEn by betaine HCl", "setting": "male Ross 308 chicks [2]; in the absence of phytase", "result": 0.20, "unit": "mJ"}, {"measurement": "Decrease in AME on betaine addition", "setting": "male Ross 308 chicks [2]; in the absence of phytase, across diet types", "result": 0.08, "unit": "mJ"}, {"measurement": "Increase in AMEn by betaine HCl", "setting": "male Ross 308 chicks [2]; in the presence of phytase", "result": 0.74, "unit": "mJ"}, {"measurement": "Increase in AME on betaine addition", "setting": "male Ross 308 chicks [2]; in the presence of phytase, across diet types", "result": 0.67, "unit": "mJ"}, {"measurement": "Increase in AME", "setting": "male Ross 308 chicks [2]; main effect", "result": 0.30, "unit": "mJ/kg"}, {"measurement": "N retention", "setting": "male Ross 308 chicks [2]; main effect across diets", "result": 52.02, "unit": "%"}, {"measurement": "AME", "setting": "male Ross 308 chicks [2]; [3]", "result": "13.33^b MJ/kg DM"}, {"measurement": "AME (energy intake)", "setting": "male Ross 308 chicks [2]; [3]", "result": 2.126, "unit": "mJ/day"}, {"measurement": "AMEn", "setting": "male Ross 308 chicks [2]; [3]", "result": "11.79^b MJ/kg DM"}, {"measurement": "AMEn", "setting": "male Ross 308 chicks [2]; main effect across diets, listed as betaine HCl, hydrochloride", "result": 11.79, "unit": "MJ/kg DM"}, {"measurement": "AME", "setting": "male Ross 308 chicks [2]; [4]", "result": 13.33, "unit": "MJ/kg DM"}, {"measurement": "AME (energy intake)", "setting": "male Ross 308 chicks [2]; [4]", "result": "did not influence"}]}]}
